Data: patent publication US7465755B2, “Hydrazide derivatives as prostaglandin receptors modulators” (Laboratoires Serono SA, priority 2003, dated 2008)

How the values were obtained:
[1] = molecular target: T1, h-EP2 (Homo sapiens, UniProt P43116); assay: Prostaglandin EP2 receptor binding assay (3H-PGE2 SPA); settings: EP2 receptor membranes, 20 nM 3H-PGE2, pH 6.0, 2 hrs room temperature
Method: Compounds of the invention were tested in an EP2 receptor binding assay of the following protocol. As referred to herein, the term an “EP2 receptor binding assay” designates the following protocol.
(§1) A mixture containing 20 μg of EP2 receptor membranes, 0.5 mg of wheat germ agglutinin coated PVT-SPA beads, with or without compound of the invention (25 μl per well) or 10 μM of cold PGE2 at 1% DMSO and 20 nM ^3H-PGE2 in assay buffer containing 25 mM MES, 10 mM MgCl2, 1 mM EDTA, pH 6.0 are incubated in Corning 3600 plates on a plate shaker for 2 hrs at room temperature. ^3H-PGE2 binding is evaluated by counting the plates on the top count using the ^3H SPA dpm2 program. The percentage of binding and Ki value for inhibitors are calculated based on the one site competition parameter using the Graphpad® prism program.

[2] = molecular target: T1, h-EP2; assay: EP2 total cAMP assay in HEK293-EBNA cells transfected with pCEP4-hEP2; format: cell-based; settings: 1 hour 37° C.
Method: Therefore, the compounds of the invention are tested for their ability in modulating cAMP levels in cells over-expressing EP2 or EP4 (Example 25 below) receptors.
(§2) Compounds of the invention are tested in a total cAMP assay as follows. HEK293-EBNA cells transfected with pCEP4-hEP2 receptors are seeded in 96 well opaque plate (Costar #3917) at 4×10^4 cells per well in 100 μl of culture medium (D-MEM/F12 supplemented with 10% FBS, […] L-glutamine, and 250 μg/ml of hygromycin; all from Gibco BRL) and incubated at 37° C. After overnight incubation, the medium is removed from each well and replaced with 45 μl of assay medium consisted of phenol red free D-MEM/F-12, 0.1% BSA (Gibco BRL) and 0.1 mM 3-isobutyl-1-methyl-xanthine (Sigma). After 15 minutes of incubation at 37° C., 16-16-dimethyl PGE-2 or compounds at desired concentrations in 20 μl of assay medium are added to cells and further incubated at 37° C. for 1 hour. Total cAMP (intra- and extra-cellular) is measured by using a cAMP-screen ELISA System (Tropix, #CS1000).

[3] = molecular target: T2, h-EP4 (Homo sapiens, UniProt P35408); assay: EP4 receptor binding assay (3H-PGE2 SPA); settings: EP4 receptor membranes, 20 nM 3H-PGE2, pH 6.0, 2 hrs room temperature
T2 sequence (P35408 whole entry): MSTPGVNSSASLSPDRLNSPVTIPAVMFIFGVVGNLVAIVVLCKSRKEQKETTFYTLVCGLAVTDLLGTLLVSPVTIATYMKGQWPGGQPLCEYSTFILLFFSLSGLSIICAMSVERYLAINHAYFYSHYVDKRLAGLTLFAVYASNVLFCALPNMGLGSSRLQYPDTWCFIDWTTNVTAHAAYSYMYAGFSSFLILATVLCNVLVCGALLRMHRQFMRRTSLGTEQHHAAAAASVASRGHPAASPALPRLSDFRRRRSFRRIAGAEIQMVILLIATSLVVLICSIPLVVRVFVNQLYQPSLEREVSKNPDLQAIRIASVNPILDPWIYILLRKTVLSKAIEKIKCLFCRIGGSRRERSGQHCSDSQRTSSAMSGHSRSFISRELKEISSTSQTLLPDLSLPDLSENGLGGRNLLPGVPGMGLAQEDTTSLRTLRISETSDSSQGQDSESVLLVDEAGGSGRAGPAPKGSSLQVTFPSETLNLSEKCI
Method: Compounds of the invention were tested in an EP4 receptor binding assay of the following protocol.
as §1, with “EP4” for “EP2”, “compounds” for “compound”

[4] = molecular target: T2, h-EP4; assay: EP4 total cAMP assay in HEK293-EBNA cells transfected with hEP4; format: cell-based; settings: 1 hour 37° C.
Method: as §2, with “pCFP4-hEP4” for “pCEP4-hEP2”

[5] = test system: hepatitis B viral replication; settings: oral administration, chronic hepatitis B patients; cited from earlier work

T1 sequence (P43116 whole entry): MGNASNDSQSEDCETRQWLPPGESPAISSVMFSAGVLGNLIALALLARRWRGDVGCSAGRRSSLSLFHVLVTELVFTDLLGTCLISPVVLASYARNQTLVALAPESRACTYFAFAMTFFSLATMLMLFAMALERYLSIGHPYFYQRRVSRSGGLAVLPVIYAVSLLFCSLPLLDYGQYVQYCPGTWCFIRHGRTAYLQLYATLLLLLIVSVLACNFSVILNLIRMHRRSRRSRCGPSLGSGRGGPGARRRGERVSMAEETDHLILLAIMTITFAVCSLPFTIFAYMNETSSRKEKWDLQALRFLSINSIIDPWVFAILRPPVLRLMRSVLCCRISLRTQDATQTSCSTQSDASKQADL

Ki [1]	Ki [3]	Compound	further results
32900 nM	400 nM	CCCCCC(O)CCNN(CCc1ccc(C(=O)O)cc1)C(C)=O (stereo not drawn) [Example 2, 4-{2-[1-acetyl-2-(3-hydroxyoctyl)hydrazino]ethyl}benzoic acid]	EC50 [2]: 6030 nM
4450 nM	530 nM	CC(=O)N(CCc1ccc(C(=O)O)cc1)NCCC(O)Cc1cccc(C(F)(F)F)c1 (stereo not drawn) [Example 4, 4-[2-(1-acetyl-2-{3hydroxy-4-[3-(trifluoromethyl)phenyl]butyl}hydrazino)ethyl]benzoic acid]	EC50 [4]: 0.4 nM
	332 nM	CC(C)C(=O)N(CCc1ccc(C(=O)O)cc1)NCCC(O)Cc1cccc(C(F)(F)F)c1 (stereo not drawn) [Example 6, 4-[2-(2-{3-hydroxy-4-[3-(trifluoromethyl)phenyl]butyl}-1-isobutyryl hydrazino)ethyl]benzoic acid]	
4210 nM	45 nM	CC(=O)N(CCc1ccc(C(=O)O)cc1)NCCC(O)Cc1cccc(C#Cc2ccccc2)c1 (stereo not drawn) [Example 7, 4-[2-(1-acetyl-2-{3-hydroxy-4-[3-(phenylethynyl)phenyl]butyl}hydrazino)ethyl]benzoic acid]	EC50 [4]: 0.15 nM
	115 nM	CC(=O)N(CCc1ccc(C(=O)O)cc1)NCCC(O)Cc1cccc(-c2ccccc2)c1 (stereo not drawn) [Example 8, 4-(2-{1-acetyl-2-[4-(1,1′-biphenyl-3-yl)-3-hydroxybutyl]hydrazino}ethyl)benzoic acid]	
	149 nM	CC(=O)N(CCc1ccc(C(=O)O)cc1)NCCC(O)Cc1cccc(Br)c1 (stereo not drawn) [Example 9, 4-(2-{1-acetyl-2-[4-(3-bromophenyl)-3-hydroxybutyl]hydrazino}ethyl) benzoic acid]	
	97 nM	CC(=O)N(CCc1ccc(C(=O)O)cc1)NCCC(O)Cc1cccc(I)c1 (stereo not drawn) [Example 10, 4-(2-{1-acetyl-2-[3-hydroxy-4-(3-iodophenyl)butyl]hydrazino}ethyl)benzoic acid]	
	131 nM	C#Cc1cccc(CC(O)CCNN(CCc2ccc(C(=O)O)cc2)C(C)=O)c1 (stereo not drawn) [Example 16, 4-(2-{1-acetyl-2-[4-(3ethynylphenyl)-3-hydroxybutyl]hydrazino}ethyl) benzoic acid]	
		CCCCC[C@H](O)/C=C/[C@H]1[C@H](O)CC(=O)[C@@H]1C/C=C\CCCC(=O)O [PGE2, Prostaglandin E2]	patients with sustained loss of viral replication [5]: 47%
